Patent US10183015B2, “Heterocyclic compounds and methods of use” (Medivation Technologies LLC, priority 2015, dated 2019)
Several values for one entry are separate records, joined by “and”; a condition that tells them apart may be missing. Equal values may be shown once.

Key:
Format in all cases: in vivo
[1] = Short-term Paigen-diet NASH mouse model: Compound #37 plasma concentration 1 hour after final dose; conditions: for concentration at 1 h: male, C57Bl/6J, mouse, plasma, oral
Excerpt: After 21 days of treatment, mice were 4-hour fasted (9 am to 1 pm). One hour after the last dosing (noon), blood was collected by retro-orbital bleeding (maximal volume on EDTA) under isoflurane anesthesia to measure plasma triglycerides, total cholesterol, non-esterified fatty acid, ALT and AST. Mice were then sacrificed by cervical dislocation, and livers were harvested and weighed. Liver samples from the same lobe were dissected, frozen, and analyzed as described below.
The Paigen diet in the C57Bl/6J mouse strain typically results in an initial acute weight loss that recovers over time (Hebbard & George, 2011; vendor historical unpublished data). […] Dosing of this group was stopped on day 4 and the surviving mice were sacrificed on day 9, 1 hour after a final dose to analyze drug exposure. […] No mice died in the Compound #37 5 mg/kg/day or vehicle control groups (10 mice each group).
The death of animals in the Compound #37 40 mg/kg/day and 20 mg/kg/day groups appears to be related to synergistic weight loss due to a combination of the Paigen diet and the inappetence effects of Compound #37 observed in repeat-dose toxicity studies in rats and dogs. […] Compound #37 mean plasma concentration 1 hour after final dose administration on day 21 was 20.4 μM (±4.33 μM) and 112 μM (±26.0 μM) for the 5 mg/kg and 20 mg/kg groups, respectively. The Compound #37 mean plasma concentration 1 hour after final dose administration for the 4 animals on day 9 in the 40 mg/kg group was 136 μM (±37.1 μM). These exposures at 1 hour after dosing are approximately 2-fold higher than those observed in healthy mice and may be related to altered Compound #37 metabolism in this acute liver injury model.

IL-6 = assay: Short-term Paigen-diet NASH mouse model: liver IL-6 levels
Experimental: To investigate whether Compound #37 prevents the development of pathology associated with NASH and steatosis in an acute exploratory disease model, a study was conducted using a diet-induced acute liver steatosis model in mice. […]
After acclimation, 8-week old male C57Bl/6J mice (Charles River) weighing about 25 g were randomized in 4 groups according their body weight and treated once daily around noon by oral gavage with vehicle, or Compound #37 at various for 21 days as follows: Group 1: vehicle-20% (2-hydroxypropyl)-β-cyclodextrin (HP-β-CD) (n=10); Group 2: Compound #37, 5 mg/kg (n=10) Group 3: Compound #37, 20 mg/kg (n=10) Group 4: Compound #37, 40 mg/kg (n=10). During the treatment period, body weight and food intake (measured over 24h) were measured 3 times per week and once a week, respectively. During the acclimation, all mice were fed a standard diet (Special Diets Services RM1 (E), product no. 801492) and tap water ad libitum. After the acclimation period, mice were fed until the end of the experiment with a 60% high fat Paigen diet (60 kcal % fat, 1.25% cholesterol, and 0.5% cholate; D11061901, Research Diet) and tap water ad libitum.
The 60% high fat Paigen diet induced accumulation of liver lipids, inflammation, oxidative stress, and then fibrosis.

[2] = tested on: diet-induced NASH obese insulin resistant mice; assay: DIN mouse model: blood glucose, plasma insulin, HOMA-IR; conditions: for HOMA-IR index reduction / HOMA-IR day 0 / blood glucose day 0 / plasma insulin day 0: 20 mg/kg; for HOMA-IR day 0 / blood glucose day 0 / plasma insulin day 0: day 0 (baseline); for HOMA-IR day 42 / blood glucose day 42 / plasma insulin day 42: day 42, 20 mg/kg; for HOMA-IR day 70 / blood glucose day 70 / plasma insulin day 70: day 70, 20 mg/kg;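 as to blood glucose day 0: blood glucose in mg/dL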;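 as to blood glucose day 42: blood glucose in mg/dL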;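 as to blood glucose day 70: blood glucose in mg/dL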
Experimental: Male C57Bl/6J mice (8 weeks old) were housed in enriched ventilated cages (31×12.5×12.7 cm) throughout the experimental phase. Animals' cages litters were changed at least once a week. Animal were housed 5 per cage on inverted 12-hour light cycle (at 09:00 am lights off), 22±2° C. and 55±10% relative humidity. The acclimation period was 20 days. During the acclimation period, all mice were fed a standard diet (RM1 (E) 801492, SDS) and tap water ad libitum. After the acclimation period, mice were fed with the DIN diet (60% fat, cholesterol enriched) and fructose-enriched tap water ad libitum until the end of the experiment.
At 6 weeks of diet, mice were 4-hour fasted (09:00 am to 1:00 pm) and blood (150 μl/EDTA) was collected at 01:00 pm by retro-orbital bleeding under isoflurane anesthesia. Mice were then allocated in 2 homogenous groups (n=12/group) according to their plasma levels of ALT (average levels: 685U/L), AST (average levels: 627U/L) and HOMA-IR index (average value: 4.7), into 2 homogenous groups (see values at day 0 in Tables 15A and 15B ALT/AST and Tables 16A and 16B for HOMA-IR). Mice were then treated once daily by oral gavage with vehicle (Group 1) or Compound #37 at 20 mg/kg (Group 2) for 70 days.
To investigate whether Compound #37 improves pre-existing steatosis/NASH pathology, a study was conducted using a 16-week diet-induced NASH mouse model. In this model, mice develop steatosis that progresses with inflammation and fibrosis that mimic many of the observed pathologies in human nonalcoholic fatty liver disease (NAFLD) and NASH (Hebbard & George, 2010). For 6 weeks, mice were fed a high-fat, high-cholesterol diet and provided drinking water containing fructose to induce liver pathology (Charlton et al, 2011). After 6 weeks, the mice were divided into 2 groups with similar mean aspartate aminotransferase (AST) and alanine aminotransferase (ALT) values (n=12 mice), although it should be noted that AST and ALT concentrations within both groups were higher and with greater variability than anticipated (e.g., mean ALT 677 U/L [SD, 401 U/L] in the vehicle control group and 693 U/L [SD, 365 U/L] in the Compound #37 group). After the animals were divided into 2 groups, the diet was continued for 10 additional weeks during which time 1 group received vehicle and the other was treated with 20 mg/kg/day Compound #37.

Compound: CC(C)Cc1cc(-c2nc(-c3ccc(NS(=O)(=O)C(F)(F)F)cc3Cl)cs2)ccn1 [Compound 37, N-(3-chloro-4-(2-(2-isobutylpyridin-4-yl)thiazol-4-yl)phenyl)-1,1,1-trifluoromethanesulfonamide]
- exposure at 1 hour after dosing relative to healthy mice ([1]; acute liver injury model vs healthy mice): approximately 2 fold
- concentration at 1 h ([1]; 5 mg/kg, day 21): 20.4 µM
- concentration at 1 h ([1]; 20 mg/kg, day 21): 112 µM
- concentration at 1 h ([1]; 40 mg/kg, day 9, 4 animals): 136 µM
- IL-6 (pg/mg tissue) (IL-6; 5 mg/kg, 21 days, group mean): 1012 pg/mg tissue
- IL-6 (pg/mg tissue) (IL-6; 5 mg/kg, 21 days, individual animals): 1444 pg/mg tissue and 845 pg/mg tissue and 1107 pg/mg tissue and 650 pg/mg tissue and 1305 pg/mg tissue and 957 pg/mg tissue and 770 pg/mg tissue and 1296 pg/mg tissue and 883 pg/mg tissue and 863 pg/mg tissue
- IL-6 (pg/mg tissue) (IL-6; 20 mg/kg, 21 days, group mean): 817 pg/mg tissue
- IL-6 (pg/mg tissue) (IL-6; 20 mg/kg, 21 days, individual animals): 904 pg/mg tissue and 737 pg/mg tissue and 760 pg/mg tissue and 705 pg/mg tissue and 970 pg/mg tissue and 826 pg/mg tissue
- IL-6 (pg/mg tissue) (IL-6; 40 mg/kg, 9 days, group mean): 669 pg/mg tissue
- IL-6 (pg/mg tissue) (IL-6; 40 mg/kg, 9 days, individual animals): 1005 pg/mg tissue and 569 pg/mg tissue and 535 pg/mg tissue and 566 pg/mg tissue
- HOMA-IR index reduction ([2]; day 42, not significant): 50%
- HOMA-IR index reduction ([2]; day 70, not significant): 40%
- HOMA-IR day 0 ([2]; group mean, n 12): 4.8 [mM × μU/mL]/22.5
- blood glucose day 0 ([2]; group mean, n 12): 104 mg/dL
- plasma insulin day 0 ([2]; group mean, n 12): 17 μU/mL
- HOMA-IR day 0 ([2]; individual animals): 2.7 [mM × μU/mL]/22.5 and 4.1 [mM × μU/mL]/22.5 and 23.6 [mM × μU/mL]/22.5 and 2.1 [mM × μU/mL]/22.5 (2×) and 2.3 [mM × μU/mL]/22.5 (2×) and 1.9 [mM × μU/mL]/22.5 and 1.8 [mM × μU/mL]/22.5 and 3.8 [mM × μU/mL]/22.5 and 1.6 [mM × μU/mL]/22.5 and 8.8 [mM × μU/mL]/22.5
- blood glucose day 0 ([2]; individual animals): 97 mg/dL and 113 mg/dL (2×) and 123 mg/dL and 106 mg/dL and 79 mg/dL and 95 mg/dL and 114 mg/dL and 102 mg/dL and 89 mg/dL and 112 mg/dL and 103 mg/dL
- plasma insulin day 0 ([2]; individual animals): 11.3 μU/mL and 14.7 μU/mL and 77.6 μU/mL and 8.1 μU/mL and 11.9 μU/mL and 6.9 μU/mL and 7.5 μU/mL (2×) and 13.6 μU/mL and 8.4 μU/mL and 31.9 μU/mL and 9 μU/mL
- HOMA-IR day 42 ([2]; group mean, n 12): 3.7 [mM × μU/mL]/22.5
- blood glucose day 42 ([2]; group mean, n 12): 133 mg/dL
- plasma insulin day 42 ([2]; group mean, n 12): 11.5 μU/mL
- HOMA-IR day 42 ([2]; individual animals): 3.8 [mM × μU/mL]/22.5 (2×) and 3.3 [mM × μU/mL]/22.5 and 5.0 [mM × μU/mL]/22.5 and 7.7 [mM × μU/mL]/22.5 and 2.8 [mM × μU/mL]/22.5 (3×) and 1.9 [mM × μU/mL]/22.5 and 3.7 [mM × μU/mL]/22.5 and 3.5 [mM × μU/mL]/22.5 and 3.4 [mM × μU/mL]/22.5
- blood glucose day 42 ([2]; individual animals): 133 mg/dL and 139 mg/dL (2×) and 112 mg/dL and 126 mg/dL and 128 mg/dL and 132 mg/dL and 131 mg/dL and 138 mg/dL and 151 mg/dL and 140 mg/dL and 127 mg/dL
- plasma insulin day 42 ([2]; individual animals): 11.6 μU/mL and 9.5 μU/mL and 18.0 μU/mL and 24.8 μU/mL and 8.9 μU/mL and 11.8 μU/mL and 5.8 μU/mL and 8.2 μU/mL (2×) and 10.0 μU/mL and 10.2 μU/mL and 10.7 μU/mL
- HOMA-IR day 70 ([2]; group mean, n 11): 4.5 [mM × μU/mL]/22.5
- blood glucose day 70 ([2]; group mean, n 11): 130 mg/dL
- plasma insulin day 70 ([2]; group mean, n 11): 13.7 μU/mL
- HOMA-IR day 70 ([2]; individual animals): 7.5 [mM × μU/mL]/22.5 and 2.6 [mM × μU/mL]/22.5 and 6.0 [mM × μU/mL]/22.5 and 5.8 [mM × μU/mL]/22.5 and 3.9 [mM × μU/mL]/22.5 and 2.8 [mM × μU/mL]/22.5 and 6.5 [mM × μU/mL]/22.5 and 2.5 [mM × μU/mL]/22.5 and 3.8 [mM × μU/mL]/22.5 and 3.1 [mM × μU/mL]/22.5 and 4.5 [mM × μU/mL]/22.5
- blood glucose day 70 ([2]; individual animals): 138 mg/dL and 132 mg/dL and 135 mg/dL and 157 mg/dL and 136 mg/dL and 124 mg/dL and 127 mg/dL and 100 mg/dL and 114 mg/dL and 130 mg/dL and 141 mg/dL
- plasma insulin day 70 ([2]; individual animals): 21.9 μU/mL and 8.0 μU/mL and 18.1 μU/mL and 15.1 μU/mL and 11.5 μU/mL and 9.3 μU/mL and 20.6 μU/mL and 10.3 μU/mL and 13.4 μU/mL and 9.8 μU/mL and 12.9 μU/mL
